The values that follow come from PMC8578629, “Photoactivated cell-killing amino-based flavylium compounds” (Scientific Reports, 2021).

SMILES strings stand for the structures.

The test system of the first data set is HaCaT cells. Briefly: Reactive oxygen species production (DCF-DA). The format is cell-based, human. The note with it: 25 μM, 6.6 J cm^−2, versus control cells. The protocol:
Cells reactive oxygen species (ROS) production was evaluated following the standard method. Briefly, cells were seed at a density of 4 × 10^4 cells/mL onto 96 well plates and after 24 h the compounds were added at 25 μM (non-toxic concentration) and the same previous procedure for the photoactivation assays was followed. After that, cells were washed twice in Hank’s Buffered Saline Solution (HBSS) and incubated with 100 μL of 50 μM 2′,7′-dichlorodihydrofluorescein diacetate (DCF‐DA) for 30 min in the same previous conditions. For positive control, cells were treated with 100 μM H2O2 for 30 min prior to the addition of DCF-DA. Cells were then washed twice with HBSS and incubated with fresh DMEM medium for 24 h. After this period, the fluorescence intensity at […] (ex/em) was determined in a FlexStation 3 Multi-Mode Microplate Reader.
Consider `CCN(CC)c1ccc2ccc(-c3ccc(N(C)C)cc3)[o+]c2c1` [7NEt24′NMe2, 7-diethylamino-4′-dimethylamino-benzopyrylium], for which the “ROS production upon white light irradiation (in words)” value is “positive modulation of ROS production”.

`C=CC1=C(C)c2cc3[nH]c(cc4nc(cc5[nH]c(cc1n2)c(C)c5CCC(=O)O)C(CCC(=O)O)=C4C)c(C)c3C=C` [PpIX, protoporphyrin IX, reference compound]: the “ROS production upon white light irradiation (in words)” value is listed as “no significant differences”.

System in another data set: not given
Experiment: not given
The note with it: cited from earlier work. More on the design: method as in doi:10.1016/j.cplett.2017.02.055.
On to `C=CC1=C(C)c2cc3[nH]c(cc4nc(cc5[nH]c(cc1n2)c(C)c5CCC(=O)O)C(CCC(=O)O)=C4C)c(C)c3C=C` [PpIX, protoporphyrin IX, reference compound], for which the Fluorescence quantum yield is 8.5%.

The subject of the next data set is HaCaT cells. Description: Cellular photoactivation assay (white light or dark, Alamar Blue). The format is cell-based, human. To be noted: 4 h incubation, 6.25–100 μM applied, dark. On the procedure: A white light LED homemade device prototype has 96 LEDs appropriately arranged on a plate of 13 cm length × 8 cm width, with a distance from the microplate surface of 8 cm. The prototype has an irradiance of 21 W m^−2 and a wavelength range of 408–707 nm (Fig. S4).
For the cellular photoactivation assays, the white light source of 21 W m^−2 was used. Briefly, cells were seed at a density of 4 × 10^4 cells/mL onto 96 –well plates and after 24 h the compounds were added to the plates in different concentrations (6.25–100 μM) and incubated for a period of 4 h at 37 °C in an atmosphere of 5% CO2 and in the presence of DMEM with 2% FBS. After this period, the medium with the compounds was removed and fresh medium (DMEM with 2% FBS without phenol red (DMEM_2% FBS_w/o_PR) was added to cells. Following this procedure, cells were submitted to light irradiation, the selected light source at a height of 8 cm, in a chamber designed to ensure the same light quantity for each well during the treatment. Cells were irradiated for 10 min at an intensity of 50%, at room temperature (making a total energy exposition of 6.6 J cm^−2). The dark treatment was prepared by placing the plates for 10 min in a dark box at room temperature. After this, the 96 well plates were placed in an incubator at 37 °C in an atmosphere of 5% CO2 for 24 h. Then, to determine cell survival the Alamar Blue assay was performed as follows: after the 24 h, 20 μL of a solution of Resazurin (0.15 mg mL^−1 in PBS filtered in 0.22 μm filters) were added to each well (making a total volume of 120 μL per well), and the plates were incubated between 4–6 h (until the development of visible color change from violet to pink). The fluorescence intensity of each well was then determined at 560/590 nm (ex/em) (FlexStation 3 Multi-Mode Microplate Reader).
Background: Alamar Blue is a resazurin reagent that responds to reducing activity.
As to `CCN(CC)c1ccc2ccc(-c3ccc(N(C)C)cc3)[o+]c2c1` [7NEt24′NMe2, 7-diethylamino-4′-dimethylamino-benzopyrylium], the “Dark cytotoxicity to HaCaT cells (in words)” value was “absence of dark cytotoxicity”.

Turning to `C=CC1=C(C)c2cc3[nH]c(cc4nc(cc5[nH]c(cc1n2)c(C)c5CCC(=O)O)C(CCC(=O)O)=C4C)c(C)c3C=C` [PpIX, protoporphyrin IX, reference compound], the “Dark cytotoxicity to HaCaT cells (in words)” value is listed as “no cytotoxic effects in dark conditions”.

The same data set, now with this note: 4 h incubation, 6.25–100 μM applied, white light 6.6 J cm^−2.
With `CCN(CC)c1ccc2ccc(-c3ccc(N(C)C)cc3)[o+]c2c1` [7NEt24′NMe2, 7-diethylamino-4′-dimethylamino-benzopyrylium], the “Photoactivation, dark versus white light (in words)” value is “photoactivation even for low concentrations”.

As for `C=CC1=C(C)c2cc3[nH]c(cc4nc(cc5[nH]c(cc1n2)c(C)c5CCC(=O)O)C(CCC(=O)O)=C4C)c(C)c3C=C` [PpIX, protoporphyrin IX, reference compound], the “Photoactivation, dark versus white light (in words)” value was “effective photoactivation from the three higher concentrations”.

The data set is the same for the next values; noted with them: Homo sapiens, HaCaT, 4 h incubation, white light 6.6 J cm^−2 (10 min), concentrations corrected for uptake; read-out: IC50 of HaCaT cell survival, LIGHT.
Usually IC50 stands for the point on the concentration scale where inhibition reaches its midpoint. Consider `CCN(CC)c1ccc2ccc(-c3ccc(N(C)C)cc3)[o+]c2c1` [7NEt24′NMe2, 7-diethylamino-4′-dimethylamino-benzopyrylium], for which the IC50 stood at 905 ± 231 nM.

In the case of `C=CC1=C(C)c2cc3[nH]c(cc4nc(cc5[nH]c(cc1n2)c(C)c5CCC(=O)O)C(CCC(=O)O)=C4C)c(C)c3C=C` [PpIX, protoporphyrin IX, reference compound], the concentration for half-maximal inhibition (IC50) worked out at 300 nM.

The data set is the same for the next values; noted with them: white light irradiation, highest concentration applied.
For the molecule `CCN(CC)c1ccc2ccc(-c3ccc(N(C)C)cc3)[o+]c2c1` [7NEt24′NMe2, 7-diethylamino-4′-dimethylamino-benzopyrylium], the “Cell survival, minimum” value is 38%.

System in a further data set: not listed separately
Briefly: Fluorescence quantum yield by the absolute method (integrating sphere). The data set is classed as physicochemical. The note with it: in DMSO. The protocol:
Based on the absorbance maxima of the different compounds (Fig. S2), the measurement of the quantum yield (QY) of the synthesized flavylium derivatives was performed using a calibrated Quantaurus-QY stand-alone integrating sphere setup C11347-11 (Hamamatsu Photonics, Hamamatsu, Japan) equipped with an integration sphere, a monochromator, a spectrograph, a 150 W xenon light source and a silicon charge coupled device. Each compound was dissolved in DMSO and diluted to ensure an absorbance of 0.1 from the λmax of excitation forward. Each compound was then irradiated at the corresponding wavelength and the absolute quantum yield determined. The fluorescence spectra was also recorded (Fig. S3). For each compound, four independent experiments were performed.
As for `CCN(CC)c1ccc2ccc(-c3ccc(N(C)C)cc3)[o+]c2c1` [7NEt24′NMe2, 7-diethylamino-4′-dimethylamino-benzopyrylium], the “Quantum yield of fluorescence (Φf), mean ± SD” value was determined as 5.83 ± 0.28%.

The next data set has as its system HaCaT cells. Description: Photodynamic therapy mechanism determination with type I/type II quenchers. The data set is classed as cell-based, human. The note with it: D-mannitol 10 mM (type I), compound 50 μΜ, light 6.6 J cm^−2. The protocol:
For the determination of the photoactivation mechanism that yielded to cell death, cells were seeded as previously described for the photoactivation assays. […] The incubation proceeded for a time period of 4 h. After this, solutions containing the compounds were removed from cells and fresh medium containing the different quenchers were added to cells. Cells were irradiated for 10 min at an intensity of 50%, at room temperature (making a total energy exposition of 6.6 J cm^−2). The dark treatment was done by placing the plates for 10 min in a dark box at room temperature. After this, the medium was removed and replaced by fresh medium without any additive. The 96 well plates were then placed in an incubator at 37 °C in an atmosphere of 5% CO2 for 24 h. Finally, the Alamar Blue assay was performed to determine cell survival as previously described.
Turning to `CCN(CC)c1ccc2ccc(-c3ccc(N(C)C)cc3)[o+]c2c1` [7NEt24′NMe2, 7-diethylamino-4′-dimethylamino-benzopyrylium], the “Increase of cell survival with quencher” value was 6%.

Turning to `C=CC1=C(C)c2cc3[nH]c(cc4nc(cc5[nH]c(cc1n2)c(C)c5CCC(=O)O)C(CCC(=O)O)=C4C)c(C)c3C=C` [PpIX, protoporphyrin IX, reference compound], the “Increase of cell survival with quencher” value is reported as 27%.

Staying with this data set, now noted: L-cysteine 10 mM (type I), compound 50 μΜ, light 6.6 J cm^−2.
With `CCN(CC)c1ccc2ccc(-c3ccc(N(C)C)cc3)[o+]c2c1` [7NEt24′NMe2, 7-diethylamino-4′-dimethylamino-benzopyrylium], the “Increase of cell survival with quencher” value is given as 13%.

Consider `C=CC1=C(C)c2cc3[nH]c(cc4nc(cc5[nH]c(cc1n2)c(C)c5CCC(=O)O)C(CCC(=O)O)=C4C)c(C)c3C=C` [PpIX, protoporphyrin IX, reference compound], for which the “Increase of cell survival with quencher” value amounted to 26%.

The data set is the same for the next values; noted with them: L-histidine 10 mM (type II), compound 50 μΜ, light 6.6 J cm^−2.
As to `CCN(CC)c1ccc2ccc(-c3ccc(N(C)C)cc3)[o+]c2c1` [7NEt24′NMe2, 7-diethylamino-4′-dimethylamino-benzopyrylium], the “Increase of cell survival with quencher” value worked out at 44%.

Take `C=CC1=C(C)c2cc3[nH]c(cc4nc(cc5[nH]c(cc1n2)c(C)c5CCC(=O)O)C(CCC(=O)O)=C4C)c(C)c3C=C` [PpIX, protoporphyrin IX, reference compound]: the “Increase of cell survival with quencher” value came to 42%.

The data set is the same for the next values; noted with them: sodium azide 10 mM (type II), compound 50 μΜ, light 6.6 J cm^−2.
As to `CCN(CC)c1ccc2ccc(-c3ccc(N(C)C)cc3)[o+]c2c1` [7NEt24′NMe2, 7-diethylamino-4′-dimethylamino-benzopyrylium], the “Increase of cell survival with quencher” value is recorded as 27%.

With `C=CC1=C(C)c2cc3[nH]c(cc4nc(cc5[nH]c(cc1n2)c(C)c5CCC(=O)O)C(CCC(=O)O)=C4C)c(C)c3C=C` [PpIX, protoporphyrin IX, reference compound], the “Increase of cell survival with quencher” value is 37%.
